Reference: PubChem BioAssay AID1745844 (Carcinogenic Potency Database (CPDB), 2022)
Where “and” joins values, the source holds several entries; their conditions need not be identical. Equal values may be shown once. Calls of active or inactive are those of the source. How the calls were made is not given here.

System: rodent lifetime carcinogenesis bioassay, tumor incidence TD50
Assay: carcinogenic potency in animals, long-term in vivo studies, CPDB compilation (AID 1745844)
Conditions: inhaled, dosed 104 weeks, study length 104 weeks; for carcinogen call: site: liver, lesion: one or several types, types not named

With C=CC(=C)Cl the TD50 (mouse, strain B6C3F1, males, site: lung, lesion: alveolar/bronchiolar adenoma + alveolar/bronchiolar carcinoma) was 17.2 mg/kg/day, the TD50 (mouse, strain B6C3F1, males, site: lung, lesion: alveolar/bronchiolar adenoma) was 30.7 mg/kg/day and the TD50 (mouse, strain B6C3F1, males, site: lung, lesion: alveolar/bronchiolar carcinoma) was 26.4 mg/kg/day. It also gave a TD50 (mouse, strain B6C3F1, males, site: mesentery, lesion: hemangioma + hemangiosarcoma) of 37.6 mg/kg/day, a TD50 (mouse, strain B6C3F1, males, site: mesentery, lesion: hemangiosarcoma) of 39 mg/kg/day and a TD50 (mouse, strain B6C3F1, males, site: subcutaneous tissue, lesion: hemangiosarcoma) of 177 mg/kg/day. The TD50 (rat, strain Fischer 344, females, site: all sites, lesion: mononuclear-cell leukemia) was 30.4 mg/kg/day, the TD50 (rat, strain Fischer 344, females, site: any site (literature study), lesion: several types, types named in the paper) was 25.4 mg/kg/day and the TD50 (rat, strain Fischer 344, females, site: clitoral gland, lesion: adenoma + adenoma, bilateral + carcinoma + carcinoma, bilateral) was 7.14 mg/kg/day. The TD50 (rat, strain Fischer 344, females, site: clitoral gland, lesion: carcinoma + carcinoma, bilateral) was 12.4 mg/kg/day, the TD50 (rat, strain Fischer 344, females, site: kidney, lesion: tubule adenoma + tubule carcinoma) was 183 mg/kg/day and the TD50 (rat, strain Fischer 344, females, site: kidney, lesion: tubule adenoma) was 461 mg/kg/day and 183 mg/kg/day. The TD50 (rat, strain Fischer 344, females, site: lung, lesion: alveolar/bronchiolar adenoma) was 279 mg/kg/day, the TD50 (rat, strain Fischer 344, females, site: mammary gland, lesion: carcinoma + fibroadenoma) was 20.4 mg/kg/day and the TD50 (rat, strain Fischer 344, females, site: mammary gland, lesion: fibroadenoma) was 16.3 mg/kg/day. For the same compound, the TD50 (rat, strain Fischer 344, females, site: oral mucosa + gingiva + mammary gland + pharynx + thyroid gland + tongue, lesion: squamous-cell papilloma + carcinoma + fibroadenoma + squamous-cell carcinoma + follicular-cell adenoma + follicular-cell carcinoma) was 23.3 mg/kg/day, the TD50 (rat, strain Fischer 344, females, site: oral mucosa + gingiva + pharynx + tongue, lesion: squamous-cell papilloma + squamous-cell carcinoma) was 33.9 mg/kg/day and the TD50 (rat, strain Fischer 344, females, site: oral mucosa + gingiva + pharynx + tongue, lesion: squamous-cell papilloma) was 61.2 mg/kg/day. The TD50 (rat, strain Fischer 344, females, site: pharynx + tongue, lesion: squamous-cell carcinoma) was 77.8 mg/kg/day, the TD50 (rat, strain Fischer 344, females, site: thyroid gland, lesion: follicular-cell adenoma + follicular-cell carcinoma) was 113 mg/kg/day and the TD50 (rat, strain Fischer 344, females, site: tongue, lesion: squamous-cell carcinoma + squamous-cell papilloma) was 32.9 mg/kg/day. For the same compound, the TD50 (rat, strain Fischer 344, females, site: tongue, lesion: squamous-cell carcinoma) was 91.1 mg/kg/day, the TD50 (rat, strain Fischer 344, females, site: tongue, lesion: squamous-cell papilloma) was 53.5 mg/kg/day and the TD50 (rat, strain Fischer 344, females, site: urinary bladder, lesion: transitional-cell carcinoma) was 467 mg/kg/day. The TD50 (rat, strain Fischer 344, males, site: all sites, lesion: mesothelioma, malignant) was 27.1 mg/kg/day, the TD50 (rat, strain Fischer 344, males, site: any site (literature study), lesion: several types, types named in the paper) was 6.12 mg/kg/day and the TD50 (rat, strain Fischer 344, males, site: kidney, lesion: tubule adenoma + tubule carcinoma) was 16.1 mg/kg/day. For the same compound, the TD50 (rat, strain Fischer 344, males, site: kidney, lesion: tubule adenoma) was 38.9 mg/kg/day and 15.4 mg/kg/day, the TD50 (rat, strain Fischer 344, males, site: lung, lesion: alveolar/bronchiolar adenoma + alveolar/bronchiolar carcinoma) was 23.8 mg/kg/day and the TD50 (rat, strain Fischer 344, males, site: lung, lesion: alveolar/bronchiolar carcinoma) was 24.5 mg/kg/day. It also gave a TD50 (rat, strain Fischer 344, males, site: oral mucosa + gingiva + lung + pharynx + thyroid gland + tongue, lesion: squamous-cell papilloma + alveolar/bronchiolar adenoma + alveolar/bronchiolar carcinoma + follicular-cell adenoma + follicular-c) of 5.79 mg/kg/day, a TD50 (rat, strain Fischer 344, males, site: oral mucosa + gingiva + pharynx + tongue, lesion: squamous-cell papilloma + squamous-cell carcinoma) of 10.1 mg/kg/day and a TD50 (rat, strain Fischer 344, males, site: oral mucosa + gingiva + pharynx + tongue, lesion: squamous-cell papilloma) of 11.1 mg/kg/day. It also gave a TD50 (rat, strain Fischer 344, males, site: oral mucosa + gingiva + pharynx, lesion: squamous-cell papilloma) of 39.2 mg/kg/day, a TD50 (rat, strain Fischer 344, males, site: thyroid gland, lesion: c-cell adenoma) of 20 mg/kg/day and a TD50 (rat, strain Fischer 344, males, site: thyroid gland, lesion: follicular-cell adenoma + follicular-cell carcinoma) of 18.7 mg/kg/day. For the same compound, the TD50 (rat, strain Fischer 344, males, site: thyroid gland, lesion: follicular-cell adenoma) was 22 mg/kg/day, the TD50 (rat, strain Fischer 344, males, site: tongue, lesion: squamous-cell carcinoma + squamous-cell papilloma) was 13.6 mg/kg/day and the TD50 (rat, strain Fischer 344, males, site: tongue, lesion: squamous-cell papilloma) was 15.6 mg/kg/day. For the same compound, the TD50 (rat, strain Fischer 344, males, site: urinary bladder, lesion: transitional-cell carcinoma) was 99.9 mg/kg/day, the TD50 (rat, strain Fischer 344, males, site: urinary bladder, lesion: transitional-cell papilloma) was 468 mg/kg/day and the TD50 (rat, strain Wistar-random, females, site: any site (literature study), lesion: several types, types named in the paper) was 37.4 mg/kg/day (inactive). For the same compound, the carcinogen call (rat, strain Wistar-random, females) was “negative (inactive)”, the TD50 (rat, strain Wistar-random, females, site: mammary gland, lesion: fibroadenoma) was 55.1 mg/kg/day (inactive) and the TD50 (rat, strain Wistar-random, males, site: any site (literature study), lesion: several types, types named in the paper) was 66.4 mg/kg/day (inactive). The carcinogen call (rat, strain Wistar-random, males) was “negative (inactive)”.
